Measured values reported in ChEMBL document CHEMBL4420066, “Aryl amine substituted quinoxaline used as anticancer drugs” (2017).
Calls of active or inactive are those of the source. The calls are words filed in the database; no cut-off is given here.

Columns and labels:
Homo sapiens [1] = species: Homo sapiens; assay: Inhibition of human CIP2A gene promoter activity in human PLC5 cells by luciferase reporter gene assay; assay type: cell-based
HA22T cell line [2] = assay: Induction of apoptosis in human HA22T cells assessed as induction of PARP cleavage at 0.5 to 4 uM incubated for 48 hrs by Western blotting analysis; assay type: functional, cell-based
Hep 3B2 [3] = assay: Inhibition of CIP2A protein expression in human Hep3B cells assessed as CIP2A protein expression ratio level at 1 uM by Western blotting analysis (Rvb =1); assay type: functional
SK-HEP1 [4] = assay: Inhibition of PP2A-B5 protein expression in human SKHEP1 cells at 1 uM incubated for 24 hrs by Western blotting analysis; assay type: functional, cell-based
Homo sapiens [5] = species: Homo sapiens; assay: Inhibition of PP2A-A protein expression in human PLC5 cells at 1 uM incubated for 24 hrs by Western blotting analysis; assay type: functional, cell-based
HA22T cell line [6] = assay: Inhibition of CIP2A protein expression in human HA22T cells assessed as CIP2A protein expression ratio level at 4 uM by Western blotting analysis (Rvb =1); assay type: functional
Hep 3B2 [7] = assay: Induction of apoptosis in human Hep3B cells assessed as induction of PARP cleavage at 0.5 to 4 uM incubated for 48 hrs by Western blotting analysis; assay type: functional, cell-based
HA22T cell line [8] = assay: Induction of apoptosis in human HA22T cells assessed as accumulation at subG1 phase at 0.5 to 4 uM by flow cytometry; assay type: functional, cell-based
[9] = target: T1, Serine/threonine-protein kinase AKT (Homo sapiens) (UniProt P31751+Q9Y243+P31749); assay: Inhibition of Akt phosphorylation at S473 residue in human HA22T cells by Western blotting analysis; assay type: cell-based
SK-HEP1 [10] = assay: Induction of apoptosis in human SKHEP1 cells assessed as caspase-9 activation at 0.5 to 4 uM incubated for 48 hrs by Western blotting analysis; assay type: functional, cell-based
Homo sapiens [11] = species: Homo sapiens; assay: Activation of PP2A in human Hep3B cells assessed as minimal concentration causing increase in protein phosphatase activity incubated for 24 hrs using phosphopeptide substrate incubated for 10 mins by malachite green-phosphate complex assay; assay type: cell-based
HA22T cell line [12] = assay: Inhibition of PP2A-C protein expression in human HA22T cells at 1 uM incubated for 24 hrs by Western blotting analysis; assay type: functional, cell-based
Homo sapiens [13] = species: Homo sapiens; assay: Induction of apoptosis in human PLC5 cells at 2 uM in presence of caspase inhibitor Z-VAD-fmk incubated for 48 hrs by annexin-V-FITC staining based by flow cytometry; assay type: functional, cell-based
Homo sapiens [14] = species: Homo sapiens; assay: Inhibition of ELK1 protein expression in human PLC5 cells at 2 uM by Western blotting analysis; assay type: functional, cell-based
[15] = Inhibition of CIP2A protein expression in human PLC5 cells assessed as CIP2A protein expression ratio level at 4 uM by Western blotting analysis (Rvb =1); assay type: functional
Mus musculus [16] = assay: Activation of PP2A activity in tumor of human PLC5 cells xenografted in mouse at 10 mg/kg dosed for 4 weeks; assay type: functional, organism-based
[17] = target: T1, Serine/threonine-protein kinase AKT (Homo sapiens); assay: Inhibition of Akt phosphorylation at S473 residue in human PLC5 cells by Western blotting analysis; assay type: cell-based
Hep 3B2 [18] = assay: Inhibition of PP2A-B5 protein expression in human Hep3B cells at 1 uM incubated for 24 hrs by Western blotting analysis; assay type: functional, cell-based
Homo sapiens [19] = species: Homo sapiens; assay: Inhibition of CIP2A protein expression in human PLC5 cells at 2 uM by Western blotting analysis; assay type: functional, cell-based
HA22T cell line [20] = assay: Inhibition of CIP2A protein expression in human HA22T cells assessed as CIP2A protein expression ratio level at 2 uM by Western blotting analysis (Rvb =1); assay type: functional
Hep 3B2 [21] = assay: Induction of apoptosis in human Hep3B cells assessed as induction of PARP cleavage at 2 uM in presence of caspase inhibitor Z-VAD-fmk incubated for 48 hrs by Western blotting analysis; assay type: functional, cell-based
Homo sapiens [22] = species: Homo sapiens; assay: Activation of PP2A in human Hep3B cells assessed as increase in protein phosphatase activity at 1 uM incubated for 24 hrs using phosphopeptide substrate incubated for 10 mins by malachite green-phosphate complex assay; assay type: cell-based
HA22T cell line [23] = assay: Inhibition of CIP2A protein expression in human HA22T cells by Western blotting analysis; assay type: functional, cell-based
HA22T cell line [24] = assay: Inhibition of CIP2A protein expression in human HA22T cells assessed as CIP2A protein expression ratio level at 1 uM by Western blotting analysis (Rvb =1); assay type: functional
Homo sapiens [25] = species: Homo sapiens; assay: Induction of CIP2A protein degradation in human PLC5 cells incubated for 4 to 24 hrs; assay type: functional, cell-based
Hep 3B2 [26] = assay: Inhibition of CIP2A protein expression in human Hep3B cells assessed as CIP2A protein expression ratio level at 2 uM by Western blotting analysis (Rvb =1); assay type: functional
HA22T cell line [27] = assay: Induction of apoptosis in human HA22T cells assessed as caspase-9 activation at 0.5 to 4 uM incubated for 48 hrs by Western blotting analysis; assay type: functional, cell-based
[28] = Inhibition of CIP2A protein expression in human PLC5 cells assessed as CIP2A protein expression ratio level at 1 uM by Western blotting analysis (Rvb =1); assay type: functional
[29] = Induction of apoptosis in human PLC5 cells >= 2 uM incubated for 48 hrs by annexin-V-FITC staining based by flow cytometry relative to control; assay type: functional
Homo sapiens [30] = species: Homo sapiens; assay: Inhibition of CIP2A protein expression in human PLC5 cells by Western blotting analysis; assay type: functional, cell-based
Homo sapiens [31] = species: Homo sapiens; assay: Cytotoxicity against human PLC5 cells assessed as reduction in cell viability at 0.5 to 4 uM incubated for 48 hrs by MTT assay; assay type: functional, cell-based
Homo sapiens [32] = species: Homo sapiens; assay: Activation of PP2A in human SKHEP1 cells assessed as minimal concentration causing increase in protein phosphatase activity incubated for 24 hrs using phosphopeptide substrate incubated for 10 mins by malachite green-phosphate complex assay; assay type: cell-based
Homo sapiens [33] = species: Homo sapiens; assay: Activation of PP2A in human HA22T cells assessed as minimal concentration causing increase in protein phosphatase activity incubated for 24 hrs using phosphopeptide substrate incubated for 10 mins by malachite green-phosphate complex assay; assay type: cell-based
Homo sapiens [34] = species: Homo sapiens; assay: Inhibition of human CIP2A gene promoter in human PLC5 cells with ectopic overexpression of GFP-tagged Elk-1 assessed as inhibition of ELK1 protein expression at 2 uM by Western blotting analysis; assay type: cell-based
SK-HEP1 [35] = assay: Inhibition of CIP2A protein expression in human SKHEP1 cells by Western blotting analysis; assay type: functional, cell-based
HA22T cell line [36] = assay: Induction of apoptosis in human HA22T cells assessed as caspase-3 activation at 0.5 to 4 uM incubated for 48 hrs by Western blotting analysis; assay type: functional, cell-based
Mus musculus [37] = assay: Suppression of Akt phosphorylation at S473 residue in tumor of human PLC5 cells xenografted in mouse at 10 mg/kg dosed for 4 weeks by Western blot analysis; assay type: functional, organism-based
Homo sapiens [38] = species: Homo sapiens; assay: Induction of apoptosis in human PLC5 cells assessed as caspase-9 activation at 0.5 to 4 uM incubated for 48 hrs by Western blotting analysis; assay type: functional, cell-based
[39] = target: T1, Serine/threonine-protein kinase AKT (Homo sapiens); assay: Inhibition of Akt phosphorylation at S473 residue in human PLC5 cells at 2 uM incubated for 24 hrs in presence of PP2A-C siRNA by Western blotting analysis; assay type: cell-based
SK-HEP1 [40] = assay: Inhibition of CIP2A protein expression in human SKHEP1 cells assessed as CIP2A protein expression ratio level at 0.5 uM by Western blotting analysis (Rvb =1); assay type: functional

T1 sequence (P31749 whole entry, looked up): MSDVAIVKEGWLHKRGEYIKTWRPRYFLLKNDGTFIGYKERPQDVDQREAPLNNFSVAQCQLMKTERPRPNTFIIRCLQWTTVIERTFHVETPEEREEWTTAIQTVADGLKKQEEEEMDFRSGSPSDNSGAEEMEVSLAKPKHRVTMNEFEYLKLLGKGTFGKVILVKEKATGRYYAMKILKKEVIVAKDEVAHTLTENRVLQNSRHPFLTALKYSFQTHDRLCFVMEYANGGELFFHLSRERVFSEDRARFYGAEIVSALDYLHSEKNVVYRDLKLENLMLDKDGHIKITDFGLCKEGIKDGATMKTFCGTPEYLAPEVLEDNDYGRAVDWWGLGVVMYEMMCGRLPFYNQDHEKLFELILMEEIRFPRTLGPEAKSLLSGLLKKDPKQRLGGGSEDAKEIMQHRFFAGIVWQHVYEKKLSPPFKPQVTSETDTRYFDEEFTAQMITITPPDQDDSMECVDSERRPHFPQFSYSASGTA
T1 sequence (P31751 whole entry, looked up): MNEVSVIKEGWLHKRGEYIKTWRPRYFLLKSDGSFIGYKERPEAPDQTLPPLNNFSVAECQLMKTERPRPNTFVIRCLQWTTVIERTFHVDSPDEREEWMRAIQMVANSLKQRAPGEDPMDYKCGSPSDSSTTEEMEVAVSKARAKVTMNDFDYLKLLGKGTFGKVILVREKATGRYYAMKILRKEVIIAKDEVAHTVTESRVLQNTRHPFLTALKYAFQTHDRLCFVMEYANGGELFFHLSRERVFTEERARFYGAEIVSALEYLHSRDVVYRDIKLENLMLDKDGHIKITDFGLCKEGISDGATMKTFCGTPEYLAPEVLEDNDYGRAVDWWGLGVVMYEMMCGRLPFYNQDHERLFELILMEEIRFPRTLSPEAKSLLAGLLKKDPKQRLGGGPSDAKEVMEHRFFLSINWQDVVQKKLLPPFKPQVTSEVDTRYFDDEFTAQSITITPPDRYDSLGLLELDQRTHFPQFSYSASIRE
T1 sequence (Q9Y243 whole entry, looked up): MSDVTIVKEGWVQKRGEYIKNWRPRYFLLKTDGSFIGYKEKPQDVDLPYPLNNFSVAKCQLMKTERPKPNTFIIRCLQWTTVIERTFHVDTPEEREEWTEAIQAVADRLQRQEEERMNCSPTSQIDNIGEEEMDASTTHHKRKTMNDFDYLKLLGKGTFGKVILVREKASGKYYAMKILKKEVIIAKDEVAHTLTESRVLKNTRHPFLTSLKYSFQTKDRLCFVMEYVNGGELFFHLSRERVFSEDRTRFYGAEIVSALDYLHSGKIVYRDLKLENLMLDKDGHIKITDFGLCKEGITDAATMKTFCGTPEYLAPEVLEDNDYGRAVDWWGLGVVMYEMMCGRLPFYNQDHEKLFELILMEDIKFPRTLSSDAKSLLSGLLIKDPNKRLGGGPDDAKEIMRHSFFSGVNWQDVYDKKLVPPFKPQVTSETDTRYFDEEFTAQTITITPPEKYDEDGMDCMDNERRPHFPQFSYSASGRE

inhibition [9]: Dose-dependent effect | inhibition [17]: Dose-dependent effect | inhibition [39]: inactive
SMILES: C#Cc1cccc(Nc2nc3ccccc3nc2Nc2cccc(C#C)c2)c1
inhibition (Homo sapiens [1]): Dose-dependent effect | Activity (HA22T cell line [2]): Dose-dependent effect | Ratio (Hep 3B2 [3]): 0.57 | inhibition (SK-HEP1 [4]): inactive | inhibition (Homo sapiens [5]): inactive | Ratio (HA22T cell line [6]): 0.01 | Activity (Hep 3B2 [7]): Dose-dependent effect | Activity (HA22T cell line [8]): Active | Activity (SK-HEP1 [10]): Dose-dependent effect | MEC (Homo sapiens [11]): 100 to 200 nM | inhibition (HA22T cell line [12]): inactive | Activity (Homo sapiens [13]): inactive | inhibition (Homo sapiens [14]): inactive | Ratio [15]: 0.01 | Activity (Mus musculus [16]): Active | inhibition (Hep 3B2 [18]): inactive | inhibition (Homo sapiens [19]): inactive | Ratio (HA22T cell line [20]): 0.36 | Activity (Hep 3B2 [21]): inactive | Activity (Homo sapiens [22]): Active | inhibition (HA22T cell line [23]): Dose-dependent effect | Ratio (HA22T cell line [24]): 0.84 | Activity (Homo sapiens [25]): inactive | Ratio (Hep 3B2 [26]): 0.49 | Activity (HA22T cell line [27]): Dose-dependent effect | Ratio [28]: 0.28 | Activity [29]: 50% | inhibition (Homo sapiens [30]): Dose-dependent effect | Activity (Homo sapiens [31]): Active | MEC (Homo sapiens [32]): 100 to 200 nM | MEC (Homo sapiens [33]): 100 to 200 nM | inhibition (Homo sapiens [34]): inactive | inhibition (SK-HEP1 [35]): Dose-dependent effect | Activity (HA22T cell line [36]): Dose-dependent effect | Activity (Mus musculus [37]): Active | Activity (Homo sapiens [38]): Dose-dependent effect | Ratio (SK-HEP1 [40]): 0.73
